Data taken from the supplement of paper PMC11451515.

Test system: NOMO1
Test: cell viability relative to DMSO control; higher = less cytotoxic
Details: 48 h
Outline: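 Before seeding, each leukemia line was adapted for at least four passages in each medium. NOMO1 or SEM cells (500 cells/well) and P12-Ichikawa cells (1000 cells/well) went into 1536-well plates at 5 μl, then received library compounds in DMSO by pin dosing across 11 threefold concentrations, 47 μM to 0.79 nM. Readout was CellTiter-Glo One luminescence after 48 h at 37°C, and viability is given as a per-plate percentage of DMSO wells, with cell-free wells as background.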

[1] = HPLM + 10% dialyzed FBS, 0.000781 µM
[2] = HPLM + 10% dialyzed FBS, 0.00234 µM
[3] = HPLM + 10% dialyzed FBS, 0.00702 µM
[4] = HPLM + 10% dialyzed FBS, 0.0211 µM
[5] = HPLM + 10% dialyzed FBS, 0.0632 µM
[6] = HPLM + 10% dialyzed FBS, 0.19 µM
[7] = HPLM + 10% dialyzed FBS, 0.569 µM
[8] = HPLM + 10% dialyzed FBS, 1.71 µM
[9] = HPLM + 10% dialyzed FBS, 5.12 µM
[10] = HPLM + 10% dialyzed FBS, 15.4 µM
[11] = HPLM + 10% dialyzed FBS, 46.1 µM
[12] = RPMI 5 mM glucose + 10% FBS, 0.000781 µM
[13] = RPMI 5 mM glucose + 10% FBS, 0.00234 µM
[14] = RPMI 5 mM glucose + 10% FBS, 0.00702 µM
[15] = RPMI 5 mM glucose + 10% FBS, 0.0211 µM
[16] = RPMI 5 mM glucose + 10% FBS, 0.0632 µM
[17] = RPMI 5 mM glucose + 10% FBS, 0.19 µM
[18] = RPMI 5 mM glucose + 10% FBS, 0.569 µM
[19] = RPMI 5 mM glucose + 10% FBS, 1.71 µM
[20] = RPMI 5 mM glucose + 10% FBS, 5.12 µM
[21] = RPMI 5 mM glucose + 10% FBS, 15.4 µM
[22] = RPMI 5 mM glucose + 10% FBS, 46.1 µM
[23] = RPMI 5 mM glucose + 10% dialyzed FBS, 0.000781 µM
[24] = RPMI 5 mM glucose + 10% dialyzed FBS, 0.00234 µM
[25] = RPMI 5 mM glucose + 10% dialyzed FBS, 0.00702 µM
[26] = RPMI 5 mM glucose + 10% dialyzed FBS, 0.0211 µM
[27] = RPMI 5 mM glucose + 10% dialyzed FBS, 0.0632 µM
[28] = RPMI 5 mM glucose + 10% dialyzed FBS, 0.19 µM
[29] = RPMI 5 mM glucose + 10% dialyzed FBS, 0.569 µM
[30] = RPMI 5 mM glucose + 10% dialyzed FBS, 1.71 µM
[31] = RPMI 5 mM glucose + 10% dialyzed FBS, 5.12 µM
[32] = RPMI 5 mM glucose + 10% dialyzed FBS, 15.4 µM
[33] = RPMI 5 mM glucose + 10% dialyzed FBS, 46.1 µM

`Cc1c(C(=O)c2cccc3ccccc23)c2cccc3c2n1[C@H](CN1CCOCC1)CO3` was tested, and the cell viability [1] was 104%, the cell viability [2] was 100% and the cell viability [3] was 94.2%. The cell viability [4] was 101%, the cell viability [5] was 99.9% and the cell viability [6] was 91%. The cell viability [7] was 89.5%, the cell viability [8] was 86.9% and the cell viability [9] was 97.9%. The cell viability [10] was 86.1%, the cell viability [11] was 5.74% and the cell viability [12] was 91.4%. For the same compound, the cell viability [13] was 83.8%, the cell viability [14] was 87.4% and the cell viability [15] was 87.8%. It also gave a cell viability [16] of 96.7%, a cell viability [17] of 94.4% and a cell viability [18] of 86.4%. It also gave a cell viability [19] of 91%, a cell viability [20] of 88.7% and a cell viability [21] of 81.4%. It also gave a cell viability [22] of 4.88%, a cell viability [23] of 84.2% and a cell viability [24] of 90%. It also gave a cell viability [25] of 86.3%, a cell viability [26] of 86.9% and a cell viability [27] of 95.8%. For the same compound, the cell viability [28] was 85.5%, the cell viability [29] was 85.4% and the cell viability [30] was 88.1%. It also gave a cell viability [31] of 87.5%, a cell viability [32] of 77.7% and a cell viability [33] of 5.16%.
`O=C1CCCC(=O)C1C(=O)c1ccc(C(F)(F)F)cc1[N+](=O)[O-]` gave a cell viability [1] of 138%, a cell viability [2] of 110% and a cell viability [3] of 105%. For the same compound, the cell viability [4] was 107%, the cell viability [5] was 103% and the cell viability [6] was 106%. It also gave a cell viability [7] of 111%, a cell viability [8] of 118% and a cell viability [9] of 113%. For the same compound, the cell viability [10] was 93.6%, the cell viability [11] was 54.3% and the cell viability [12] was 102%. It also gave a cell viability [13] of 105%, a cell viability [14] of 99.2% and a cell viability [15] of 99.9%. It also gave a cell viability [16] of 104%, a cell viability [17] of 98.4% and a cell viability [18] of 103%. For the same compound, the cell viability [19] was 99.4%, the cell viability [20] was 98.4% and the cell viability [21] was 99.4%. The cell viability [22] was 92.8%, the cell viability [23] was 103% and the cell viability [24] was 108%. For the same compound, the cell viability [25] was 105%, the cell viability [26] was 90.1% and the cell viability [27] was 92%. It also gave a cell viability [28] of 111%, a cell viability [29] of 105% and a cell viability [30] of 113%. It also gave a cell viability [31] of 96.7%, a cell viability [32] of 95.3% and a cell viability [33] of 92.6%.
`C[N]1N=CC=C1C/2=C(\C)N(C(=O)C(=C2)/C(=O)NCC3=NC=C(C=C3)[S+](C)([O-])=O)C4=CC=CC(=C4)C(F)(F)F` gave a cell viability [12] of 105%, a cell viability [13] of 127% and a cell viability [14] of 98.9%. The cell viability [15] was 107%, the cell viability [16] was 118% and the cell viability [17] was 102%. It also gave a cell viability [18] of 102%, a cell viability [19] of 97.5% and a cell viability [20] of 100%. The cell viability [21] was 96.2%, the cell viability [22] was 93.5% and the cell viability [23] was 99%. The cell viability [24] was 106%, the cell viability [25] was 101% and the cell viability [26] was 113%. The cell viability [27] was 111%, the cell viability [28] was 123% and the cell viability [29] was 95.7%. For the same compound, the cell viability [30] was 79.7%, the cell viability [31] was 79.7% and the cell viability [32] was 90.1%. It also gave a cell viability [33] of 103%.
With `NCCc1ccc(O)c(O)c1` the cell viability [1] was 118%, the cell viability [2] was 124% and the cell viability [3] was 123%. The cell viability [4] was 119%, the cell viability [5] was 131% and the cell viability [6] was 112%. The cell viability [7] was 131%, the cell viability [8] was 125% and the cell viability [9] was 104%. For the same compound, the cell viability [10] was 27.5%, the cell viability [11] was 7.83% and the cell viability [12] was 120%. It also gave a cell viability [13] of 112%, a cell viability [14] of 115% and a cell viability [15] of 127%. For the same compound, the cell viability [16] was 121%, the cell viability [17] was 124% and the cell viability [18] was 113%. It also gave a cell viability [19] of 110%, a cell viability [20] of 110% and a cell viability [21] of 54.3%. The cell viability [22] was 14%.
`OCCN(CCO)c1nc(N2CCCCC2)c2nc(N(CCO)CCO)nc(N3CCCCC3)c2n1` was tested, and the cell viability [1] was 128%, the cell viability [2] was 112% and the cell viability [3] was 104%. For the same compound, the cell viability [4] was 128%, the cell viability [5] was 115% and the cell viability [6] was 112%. It also gave a cell viability [7] of 120%, a cell viability [8] of 111% and a cell viability [9] of 94.5%. The cell viability [10] was 105%, the cell viability [11] was 46.4% and the cell viability [12] was 120%. For the same compound, the cell viability [13] was 129%, the cell viability [14] was 119% and the cell viability [15] was 107%. For the same compound, the cell viability [16] was 114%, the cell viability [17] was 113% and the cell viability [18] was 105%. It also gave a cell viability [19] of 114%, a cell viability [20] of 111% and a cell viability [21] of 113%. It also gave a cell viability [22] of 92.4%, a cell viability [23] of 113% and a cell viability [24] of 115%. It also gave a cell viability [25] of 117%, a cell viability [26] of 115% and a cell viability [27] of 113%. It also gave a cell viability [28] of 114%, a cell viability [29] of 121% and a cell viability [30] of 114%. It also gave a cell viability [31] of 114%, a cell viability [32] of 110% and a cell viability [33] of 68%.
`O=C(NCc1ccccc1)c1csc(Nc2ccncn2)n1` gave a cell viability [1] of 86.8%, a cell viability [2] of 95.2% and a cell viability [3] of 101%. The cell viability [4] was 94%, the cell viability [5] was 121% and the cell viability [6] was 97.3%. It also gave a cell viability [7] of 97.6%, a cell viability [8] of 51.2% and a cell viability [9] of 26.7%. For the same compound, the cell viability [10] was 4.88%, the cell viability [11] was 2.11% and the cell viability [12] was 90.8%. It also gave a cell viability [13] of 82.1%, a cell viability [14] of 98.6% and a cell viability [15] of 83%. For the same compound, the cell viability [16] was 94.8%, the cell viability [17] was 98.2% and the cell viability [18] was 95.4%. The cell viability [19] was 56.6%, the cell viability [20] was 33.4% and the cell viability [21] was 4.95%. The cell viability [22] was 3.15%, the cell viability [23] was 92% and the cell viability [24] was 95%. The cell viability [25] was 93.2%, the cell viability [26] was 85.2% and the cell viability [27] was 93.7%. The cell viability [28] was 77.2%, the cell viability [29] was 103% and the cell viability [30] was 67.7%. The cell viability [31] was 33.9%, the cell viability [32] was 4.75% and the cell viability [33] was 3.19%.
In the case of `O=C1N\C=N/C2=C1C=N[NH]2`, the cell viability [1] is reported as 89.6%, the cell viability [2] is reported as 88.4% and the cell viability [3] is reported as 96.1%. It also gave a cell viability [4] of 97%, a cell viability [5] of 97.5% and a cell viability [6] of 86.8%. For the same compound, the cell viability [7] was 97.1%, the cell viability [8] was 103% and the cell viability [9] was 101%. For the same compound, the cell viability [10] was 67.1%, the cell viability [11] was 30% and the cell viability [12] was 77.9%. The cell viability [13] was 87.3%, the cell viability [14] was 83% and the cell viability [15] was 95.4%. For the same compound, the cell viability [16] was 94.9%, the cell viability [17] was 81.7% and the cell viability [18] was 86.5%. The cell viability [19] was 93%, the cell viability [20] was 94.3% and the cell viability [21] was 91.5%. It also gave a cell viability [22] of 81%, a cell viability [23] of 71.6% and a cell viability [24] of 78.3%. The cell viability [25] was 69.5%, the cell viability [26] was 84.8% and the cell viability [27] was 70.8%. The cell viability [28] was 91.3%, the cell viability [29] was 83.2% and the cell viability [30] was 88.6%. It also gave a cell viability [31] of 89.1%, a cell viability [32] of 81.2% and a cell viability [33] of 71.9%.
Work on `Oc1ccc([C@@H]2Oc3ccc(O)cc3[C@@H]3CCC[C@@H]32)cc1` yielded a cell viability [1] of 92.1%, a cell viability [2] of 93.1% and a cell viability [3] of 95.1%. It also gave a cell viability [4] of 102%, a cell viability [5] of 98% and a cell viability [6] of 89.3%. It also gave a cell viability [7] of 90.5%, a cell viability [8] of 94.2% and a cell viability [9] of 79.3%. For the same compound, the cell viability [10] was 62%, the cell viability [11] was 31.8% and the cell viability [12] was 93.3%. For the same compound, the cell viability [13] was 105%, the cell viability [14] was 97.5% and the cell viability [15] was 88.1%. The cell viability [16] was 87.3%, the cell viability [17] was 100% and the cell viability [18] was 99.9%. For the same compound, the cell viability [19] was 89.7%, the cell viability [20] was 81.8% and the cell viability [21] was 77%. For the same compound, the cell viability [22] was 28.8%, the cell viability [23] was 93.8% and the cell viability [24] was 92.1%. It also gave a cell viability [25] of 97.7%, a cell viability [26] of 90.7% and a cell viability [27] of 90.8%. For the same compound, the cell viability [28] was 94.1%, the cell viability [29] was 90.7% and the cell viability [30] was 87.4%. For the same compound, the cell viability [31] was 83.2%, the cell viability [32] was 63.7% and the cell viability [33] was 25.6%.
